Patent US20260263450A1, “USE OF GLYT1 INHIBITOR IN TREATMENT OF ORGAN FIBROSIS” (TIANJIN MEDICAL UNIVERSITY, priority 2023, published 2026)

Columns and labels:
[1] = tested on: bleomycin-induced pulmonary fibrosis; test: Bleomycin-induced pulmonary fibrosis in mice; assay type: in vivo, C57BL/6J male mice; details: for collagen deposition in lung tissue (Masson staining): 1 mg/kg and 5 mg/kg BLM; for body weight: inhibitor 0.79 mg/kg per day by gavage for 14 days from day 14 after modeling
Procedure: The dosage was 0.79 mg/kg per day, and the administration route was intragastric gavage. When used, the drug was dissolved in H2O containing 0.3% Tween 80.
C57BL/6J male mice (8-10 weeks old, weighing 24-25 g) were purchased from Beijing Huafukang Biotechnology Co., Ltd. The mice were housed in a specific pathogen-free (SPF) environment, with the room temperature maintained at 20-25° C. and the humidity controlled at 50-60%. The mice were fed normally, and the light was adjusted to a 12 h light/dark cycle. Before modeling, the mice were acclimatized to the corresponding environment for 1 week. All animal experiments were conducted in compliance with the animal care regulations and guidelines of Tianjin Medical University and were approved by the Animal Committee of Tianjin Medical University.
1. Prediluted bleomycin was prepared, and doses of 1 mg/kg and 5 mg/kg were administered on the basis of the body weights of the mice.
7. The mouse's tongue was gently pulled to one side toward the mandible with sterile padded forceps to expose the vocal cords; then, the pipette tip loaded with bleomycin was lowered to the back of the oral cavity, and the liquid was delivered through the vocal cords during inhalation. The sounds of wheezing were waited to confirm that the liquid was delivered into the trachea. For animals in the control group, an equal volume of sterile PBS was used instead of the bleomycin solution.
10. The mice were monitored daily until they were euthanized for analysis. RG1678 or water containing 0.3% Tween 80 was added to the mice by gavage every day according to their groupings.
11. When the experiment reached the appropriate time point, the mice were euthanized, their eyeballs were removed for blood collection, and then the mice were dissected to collect samples.
Mice in different groups were generated according to the abovementioned methods. The mice in the control group were given normal saline, while the mice in the experimental groups were given bleomycin at different concentrations. Fourteen days after modeling, the mice were intragastrically administered either ddH2O containing 0.3% Tween 80 or RG1678 prepared in ddH2O containing 0.3% Tween 80 via continuous gavage for 14 days; the specific experimental conditions are shown in Table 1.
1. Bleomycin stock solution (10 mg/mL): First, 10 mg of bleomycin was weighed and dissolved in 1 mL of 0.9% sodium chloride. The instillation volume for each mouse was calculated on the basis of its body weight, with the instillation volume per mouse being approximately 50 μL. The stock solution was diluted to 0.5 mg/mL and 2.5 mg/mL for subsequent instillation according to the different groups (1 mg/kg and 5 mg/kg).
3. RG1678 (0.79 mg/mL): An appropriate amount of RG1678 was dissolved in ddH2O containing 0.3% Tween 80 to prepare a stock working solution of 0.79 mg/mL. The intragastric administration volume was then calculated on the basis of the mouse's body weight, with approximately 200 μL per mouse. Before use, the stock solution was diluted to a working concentration of […].
The body weights of the mice were measured before modeling, and their body weights were monitored daily during the experiment to observe changes. A comparison was made between the body weight at the end of the experiment and that at the beginning.
To further observe lung tissue damage in mice in detail, pathological detection was performed on the mouse lung tissues in this example.
Masson staining was performed on mouse lung tissue sections. Masson staining is an experimental method used to detect the secretion and deposition levels of collagen fibers in tissues. After treatment with different staining solutions, the overall background of the tissue section appeared red, the cell nuclei were black, and the collagen fibers were blue. The content of collagen fibers can be evaluated on the basis of the depth of the blue color and the scope of its distribution. […]

A549 cells [2] = test: CCK-8 cell proliferation and cytotoxicity analysis of A549 cells; assay type: cell-based; details: 72 h
Text: A CCK-8 kit was used to detect cell proliferation and cytotoxicity. Its working principle is as follows: In the presence of an electron coupling reagent, WST-8 (chemical name: 2-(2-methoxy-4-nitrophenyl)-3-(4-nitrophenyl)-5-(2,4-disulfophenyl)-2H-tetrazolium monosodium salt) can be reduced by mitochondrial dehydrogenases to produce a highly water-soluble orange-yellow formazan product. The intensity of the color is proportional to cell proliferation and inversely proportional to cytotoxicity. […] The OD value measured at a wavelength of 450 nm via a microplate reader can indirectly reflect the number of viable cells.
The CCK-8 assay was used to detect the viability of A549 cells after treatment with different concentrations of BLM and GlyT1 inhibitor for 72 h. […] In this example, BLM, which maintained the viability of A549 cells at approximately 80%, was selected for stimulation, and A549 cells were stimulated with 25 μM BLM to establish the cell model. […] At a concentration of 380 nM, the viability of A549 cells was greater than 50%. To obtain stable experimental results more easily, 190 nM GLYT1 IN was selected as the treatment concentration in subsequent studies.

A549 cells [3] = test: Western blot of pulmonary fibrosis-related indicators in the in vitro bleomycin-induced pulmonary fibrosis model; assay type: cell-based; details: 25 μM BLM + 190 nM GLYT1 IN for 72 h; compared with BLM group
Procedure: A bleomycin-induced pulmonary fibrosis model was established in vitro, with simultaneous intervention via a GLYT1 inhibitor.
For the in vitro bleomycin-induced pulmonary fibrosis model, A549 cells were divided into […] treatment groups: the NC group (control group: treated with normal saline), the BLM group (bleomycin-treated group: treated with 25 μM BLM for 72 h), and the BLM+GLYT1 IN group (bleomycin and glycine transporter 1 inhibitor-treated group: treated with 25 μM BLM for 72 h and 190 nM GLYT1 IN for 72 h).
Western blotting was used to detect the expression levels of pulmonary fibrosis-related indicators: collagen type I alpha 1 (col1α1), collagen type III alpha 1 (col3α1), collagen type IV alpha 1 (col4α1), E-cadherin (E-Cad), and α-SMA proteins.

[4] = intervention initiated 14 days after BLM modeling, lung paraffin sections
[5] = treatment for 14 days from day 14 after modeling, compared with BLM group

Compound	collagen deposition in lung tissue (Masson staining) ([1]; compared with BLM group, listed as GLYT1 IN)	collagen deposition in lung tissue (Masson staining) ([1]; compared with BLM group, listed as GlyT1 inhibitor 1)	body weight ([1]; BLM 1 or 5 mg/kg, compared with BLM group)	body weight ([1]; BLM 1 or 5 mg/kg, compared with BLM group, listed as GLYT1 IN)	change in lung weight/body weight ratio ([1]; BLM 1 or 5 mg/kg, inhibitor by gavage for 14 days from day 14 after modeling, compared with BLM group (**P<0.01, ***P<0.001))	general condition changes after modeling (delayed responses, huddling, trembling, cyanosis, decreased food intake, wrinkled skin) ([1]; BLM+RG1678 group compared with BLM group)	BLM-induced lung tissue consolidation (HE staining) [1, 4]	degree of fibrosis (HE staining) [1, 4]	collagen deposition in lung tissue (Sirius Red staining) ([1]; intervention initiated 14 days after modeling, compared with BLM stimulation)	deposition of type I collagen in lung tissue (immunohistochemistry) [1, 5]	deposition of type III collagen in lung tissue (immunohistochemistry) [1, 5]	viability of A549 cells (A549 cells [2]; human, 380 nM)	E-cadherin protein expression level (A549 cells [3])	col1α1 protein expression level (A549 cells [3])	col3α1 protein expression level (A549 cells [3])	col4α1 protein expression level (A549 cells [3])	α-SMA protein expression level (A549 cells [3])	viability of A549 cells (A549 cells [2]; 10 μM bleomycin)	viability of A549 cells (A549 cells [2]; 25 μM BLM)	viability of A549 cells with increasing concentrations (A549 cells [2]; increasing concentrations)
C[C@H](Oc1ccc(S(C)(=O)=O)cc1C(=O)N1CCN(c2ncc(C(F)(F)F)cc2F)CC1)C(F)(F)F [RG1678]	not obvious	significantly reduce	less pronounced decrease	significantly greater	significantly alleviated	milder degrees	reduced	significantly alleviated	significantly reduced	significantly lower	significantly lower	greater than 50%	significantly increased	significantly decreased	significantly decreased	significantly decreased	significantly decreased	–	–	–
bleomycin	–	–	–	–	–	–	–	–	–	–	–	–	–	–	–	–	–	significantly affected	approximately 80%	decreased
